The values that follow come from patent EP0377521B1, “High yield sodium hydrosulfite generation” (MORTON INTERNATIONAL, INC., priority 1989, dated 1990).

The nature of the series: NaBH₄ hydrolysis half-life vs. pH. The class given is physicochemical. Conditions: for HALF-LIFE: hydrolysis. On the procedure: The pH flow profile becomes significant when related to the hydrolysis rate of the NaBH₄. Referring to the Table set forth below, the half-life of NaBH₄ is 3000 times longer at a pH of 6.0 compared to a pH of 2.5. Therefore, if the BOROL solution is added to a process stream having a pH of 2.5, the extent of the hydrolysis of the NaBH₄ is greater than if the BOROL solution and NaOH are added first to said process stream having a pH of 6.2 and the pH of said process stream is increased to 13.0, where the rate of hydrolysis of NaBH₄ is very slow (42.6 days). TABLE
TEMPERATURE = 25°C (77°F) LOG₁₀ (t½ ) = pH - (0.034 T - 1.92) [formula] t = MINUTES T = °K

In the case of `[BH4-].[Na+]` [NaBH₄, sodium borohydride], the HALF-LIFE came out at 2e-06 min (pH 2.5, 25°C (77°F)); 6.17e-05 min (pH 4.0, 25°C (77°F)); 0.000617 min (pH 5.0, 25°C (77°F)); 0.002 min (pH 5.5, 25°C (77°F)); 0.00617 min (pH 6.0, 25°C (77°F)); 0.02 min (pH 6.5, 25°C (77°F)). In addition, the HALF-LIFE is, setting by setting: (pH 7.0, 25°C (77°F)) 0.0617 min; (pH 8.0, 25°C (77°F)) 0.613 min; (pH 9.0, 25°C (77°F)) 6.1 min; (pH 10.0, 25°C (77°F)) 61 min; (pH 12.0, 25°C (77°F)) 6190 min; (pH 13.0, 25°C (77°F)) 61300 min. For the setting “ratio of hydrolysis half-lives, pH 6.0 vs pH 2.5”, the “half-life at a pH of 6.0 compared to a pH of 2.5” value is reported as 3000 times longer.
